Target: T1, HDM2 (Homo sapiens, UniProt Q00987)
T1 construct: Thioredoxin (N); made in house; host or cells: E. coli strain BL21(DE3)Rosetta
Experiment: HDM2 FRET assay (inhibition of binding of FITC labeled p53-pocket peptide to HDM2)
Details: Table 11; read-out: FRET IC50
Method in brief: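 Final: 0.5 nM His-HDM2, 3 nM FITC peptide, 0.25 nM Tb anti-His Ab; PBS, 0.01% BSA, 0.01% Tween-20; 0.1% DMSO.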

T1 sequence (Q00987 17-125): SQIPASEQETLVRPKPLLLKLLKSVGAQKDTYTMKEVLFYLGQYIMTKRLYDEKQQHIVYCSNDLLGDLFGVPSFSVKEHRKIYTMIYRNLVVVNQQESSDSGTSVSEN

Question: For `C[C@@H](Nc1nc(-c2noc(=O)[nH]2)nc2nc(-n3ccnc3)n(C[C@H]3CC[C@H](C)CC3)c12)C1CCC1` [Example 11.57, 3-(6-{[(1R)-1-cyclobutylethyl]amino}-8-(1H-imidazol-1-yl)-7-[(trans-4-methylcyclohexyl)methyl]-7H-purin-2-yl)-1,2,4-oxadiazol-5(4H)-one], which IC50 is on record?
Answer: 16.4 nM

Question: For `C[C@@H](Nc1nc(-c2noc(=O)[nH]2)nc2nc(N3CCC[C@H]4CCCC[C@@H]43)n(C[C@H]3CC[C@H](C)CC3)c12)C1CCC1` [Example 11.60, 3-(6-{[(1R)-1-cyclobutylethyl]amino}-7-[(trans-4-methylcyclohexyl)methyl]-8-[(4aR,8aS)-octahydroquinolin-1(2H)-yl]-7H-purin-2-yl)-1,2,4-oxadiazol-5(4H)-one], which IC50 is on record?
Answer: 10.5 nM

Question: For `C[C@@H](Nc1nc(-c2noc(=O)[nH]2)nc2nc(N3CCC[C@@H]4CCCC[C@H]43)n(C[C@H]3CC[C@H](C)CC3)c12)C1CCC1` [Example 11.61, 3-(6-{[(1R)-1-cyclobutylethyl]amino}-7-[(trans-4-methylcyclohexyl)methyl]-8-[(4aS,8aR)-octahydroquinolin-1(2H)-yl]-7H-purin-2-yl)-1,2,4-oxadiazol-5(4H)-one], which IC50 is on record?
Answer: 5.13 nM

Question: `C[C@H]1CC[C@H](Cn2c(N3CCOC[C@H]3c3ccccc3)nc3nc(-c4noc(=O)[nH]4)nc(N4CCCC4C4CCC4)c32)CC1` (stereo partly drawn) [Example 11.62, 3-{6-(2-cyclobutylpyrrolidin-1-yl)-7-[(trans-4-methylcyclohexyl)methyl]-8-[(3R)-3-phenylmorpholin-4-yl]-7H -purin-2-yl}-1,2,4-oxadiazol-5(4H)-one] was tested. Which IC50 did it give?
Answer: 7.84 nM

Question: `Cc1nonc1CN(C)c1nc2nc(-c3noc(=O)[nH]3)nc(N[C@H](C)C3CCC3)c2n1C[C@H]1CC[C@H](C)CC1` [Example 11.63, 3-(6-{[(1R)-1-cyclobutylethyl]amino}-7-[(trans-4-methylcyclohexyl)methyl]-8-{methyl[(4-methyl-1,2,5-oxadiazol-3-yl)methyl]amino}-7H-purin-2-yl)-1,2,4-oxadiazol-5(4H)-one] was tested. Which IC50 did it give?
Answer: 3.71 nM

Question: For `C[C@@H](Nc1nc(-c2noc(=O)[nH]2)nc2nc(N(C)Cc3ccon3)n(C[C@H]3CC[C@H](C)CC3)c12)C1CCC1` [Example 11.64, 3-(6-{[(1R)-1-cyclobutylethyl]amino}-8-[(isoxazol-3-ylmethyl)(methyl)amino]-7-[(trans-4-methylcyclohexyl)methyl]-7H-purin-2-yl)-1,2,4-oxadiazol-5(4H)-one], which IC50 is on record?
Answer: 5.77 nM

Question: For `C[C@@H]1COCCN1c1nc2nc(-c3noc(=O)[nH]3)nc(N[C@H](C)C3CCC3)c2n1C[C@H]1CC[C@H](C)CC1` [Example 11.65, 3-(6-{[(1R)-1-cyclobutylethyl]amino}-7-[(trans-4-methylcyclohexyl)methyl]-8-[(3R)-3-methylmorpholin-4-yl]-7H-purin-2-yl)-1,2,4-oxadiazol-5(4H)-one], which IC50 is on record?
Answer: 1.45 nM

Question: With `C[C@@H](Nc1nc(-c2noc(=O)[nH]2)nc2nc(N3CCOC[C@@H]3C)n(C[C@H]3CC[C@H](C)CC3)c12)C1CCC1` [Example 11.66, 3-(6-{[(1R)-1-cyclobutylethyl]amino}-7-[(trans-4-methylcyclohexyl)methyl]-8-[(3S)-3-methylmorpholin-4-yl]-7H-purin-2-yl)-1,2,4-oxadiazol-5(4H)-one] as the compound, how does the IC50 read?
Answer: 5.8 nM

Question: For `C[C@@H](Nc1nc(-c2noc(=O)[nH]2)nc2nc(N3CCOC[C@@H]3c3ccccc3)n(C[C@H]3CC[C@H](C)CC3)c12)C1CCC1` [Example 11.67, 3-(6-{[(1R)-1-cyclobutylethyl]amino}-7-[(trans-4-methylcyclohexyl)methyl]-8-[(3S)-3-phenylmorpholin-4-yl]-7H-purin-2-yl)-1,2,4-oxadiazol-5(4H)-one], which IC50 is on record?
Answer: 10.8 nM

Question: How did the IC50 turn out when `C[C@@H](Nc1nc(-c2noc(=O)[nH]2)nc2nc(N(C)Cc3ccncn3)n(C[C@H]3CC[C@H](C)CC3)c12)C1CCC1` [Example 11.70, 3-(6-{[(1R)-1-cyclobutylethyl]amino}-7-[(trans-4-methylcyclohexyl)methyl]-8-[methyl(pyrimidin-4-ylmethyl)amino]-7H-purin-2-yl)-1,2,4-oxadiazol-5(2H)-one] was run?
Answer: 22.8 nM

Question: Which IC50 does the source give for `C[C@@H](Nc1nc(-c2noc(=O)[nH]2)nc2nc(N(C)Cc3cnn(C)c3)n(C[C@H]3CC[C@H](C)CC3)c12)C1CCC1` [Example 11.71, 3-(6-{[(1R)-1-cyclobutylethyl]amino}-7-[(trans-4-methylcyclohexyl)methyl]-8-{methyl[(1-methyl-1H-pyrazol-4-yl)methyl]amino}-7H-purin-2-yl)-1,2,4-oxadiazol-5(2H)-one] here?
Answer: 24.3 nM

Question: Which IC50 does the source give for `C[C@@H](Nc1nc(-c2noc(=O)[nH]2)nc2nc(N(C)Cc3cnccn3)n(C[C@H]3CC[C@H](C)CC3)c12)C1CCC1` [Example 11.72, 3-(6-{[(1R)-1-cyclobutylethyl]amino}-7-[(trans-4-methylcyclohexyl)methyl]-8-[methyl(pyrazin-2-ylmethyl)amino]-7H-purin-2-yl)-1,2,4-oxadiazol-5(2H)-one] here?
Answer: 5.98 nM

Question: For `C[C@@H](Nc1nc(-c2noc(=O)[nH]2)nc2nc(N(C)Cc3cncs3)n(C[C@H]3CC[C@H](C)CC3)c12)C1CCC1` [Example 11.73, 3-(6-{[(1R)-1-cyclobutylethyl]amino}-7-[(trans-4-methylcyclohexyl)methyl]-8-[methyl(1,3-thiazol-5-ylmethyl)amino]-7H-purin-2-yl)-1,2,4-oxadiazol-5(2H)-one], which IC50 is on record?
Answer: 11.5 nM

Question: How did the IC50 turn out when `C[C@@H](Nc1nc(-c2noc(=O)[nH]2)nc2nc(N(C)Cc3cscn3)n(C[C@H]3CC[C@H](C)CC3)c12)C1CCC1` [Example 11.74, 3-(6-{[(1R)-1-cyclobutylethyl]amino}-7-[(trans-4-methylcyclohexyl)methyl]-8-[methyl(1,3-thiazol-4-ylmethyl)amino]-7H-purin-2-yl)-1,2,4-oxadiazol-5(2H)-one] was run?
Answer: 133 nM

Question: For `C[C@@H](Nc1nc(-c2noc(=O)[nH]2)nc2nc(N(C)Cc3noc(C4CC4)n3)n(C[C@H]3CC[C@H](C)CC3)c12)C1CCC1` [Example 11.75, 3-(6-{[(1R)-1-cyclobutylethyl]amino}-8-{[(5-cyclopropyl-1,2,4-oxadiazol-3-yl)methyl](methyl)amino}-7-[(trans-4-methylcyclohexyl)methyl]-7H-purin-2-yl)-1,2,4-oxadiazol-5(2H)-one], which IC50 is on record?
Answer: 9.58 nM

Question: For `Cc1csc(CN(C)c2nc3nc(-c4noc(=O)[nH]4)nc(N[C@H](C)C4CCC4)c3n2C[C@H]2CC[C@H](C)CC2)n1` [Example 11.76, 3-(6-{[(1R)-1-cyclobutylethyl]amino}-7-[(trans-4-methylcyclohexyl)methyl]-8-{methyl[(4-methyl-1,3-thiazol-2-yl)methyl]amino}-7H-purin-2-yl)-1,2,4-oxadiazol-5(2H)-one], which IC50 is on record?
Answer: 8.19 nM

Question: `Cc1ccc(C2CCCCN2c2nc3nc(-c4noc(=O)[nH]4)nc(N[C@H](C)C4CCC4)c3n2C[C@H]2CC[C@H](C)CC2)o1` (stereo partly drawn) [Example 11.78, 3-(6-{[(1R)-1-cyclobutylethyl]amino}-7-[(trans-4-methylcyclohexyl)methyl]-8-[2-(5-methylfuran-2-yl)piperidin-1-yl]-7H-purin-2-yl)-1,2,4-oxadiazol-5(4H)-one] was tested. Which IC50 did it give?
Answer: 37.1 nM

Question: `C[C@@H](Nc1nc(-c2noc(=O)[nH]2)nc2nc(N3CCS(=O)(=O)CC3)n(C[C@H]3CC[C@H](C)CC3)c12)C1CCC1` [Example 11.79, 3-(6-{[(1R)-1-cyclobutylethyl]amino}-8-(1,1-dioxidothiomorpholin-4-yl)-7-[(trans-4-methylcyclohexyl)methyl]-7H-purin-2-yl)-1,2,4-oxadiazol-5(2H)-one] was tested. Which IC50 did it give?
Answer: 33.3 nM

Question: For `C[C@@H](Nc1nc(-c2noc(=O)[nH]2)nc2nc(N3CCC(F)(F)CC3)n(C[C@H]3CC[C@H](C)CC3)c12)C1CCC1` [Example 11.80, 3-(6-{[(1R)-1-cyclobutylethyl]amino}-8-(4,4-difluoropiperidin-1-yl)-7-[(trans-4-methylcyclohexyl)methyl]-7H-purin-2-yl)-1,2,4-oxadiazol-5(2H)-one], which IC50 is on record?
Answer: 25.9 nM

Question: Which IC50 does the source give for `C[C@H]1CC[C@H](Cn2c(N3CCOC[C@H]3c3ccccc3)nc3nc(-c4noc(=O)[nH]4)nc(N4CCCCC4C4CCC4)c32)CC1` (stereo partly drawn) [Example 11.81, 3-{6-(2-cyclobutylpiperidin-1-yl)-7-[(trans-4-methylcyclohexyl)methyl]-8-[(3R)-3-phenylmorpholin-4-yl]-7H -purin-2-yl}-1,2,4-oxadiazol-5(4H)-one] here?
Answer: 483 nM

Question: For `C[C@H]1CC[C@H](Cn2c(N3CCOC[C@H]3c3ccccc3)nc3nc(-c4noc(=O)[nH]4)nc(N4CCCCC4C4CCC4)c32)CC1` (stereo partly drawn) [Example 11.82, 3-{6-(2-cyclobutylpiperidin-1-yl)-7-[(trans-4-methylcyclohexyl)methyl]-8-[(3R)-3-phenylmorpholin-4-yl]-7H -purin-2-yl}-1,2,4-oxadiazol-5(4H)-one], which IC50 is on record?
Answer: 6.45 nM

Question: For `CC(C)C[C@H]1CCCCN1c1nc2nc(-c3noc(=O)[nH]3)nc(N[C@H](C)C3CCC3)c2n1C[C@H]1CC[C@H](C)CC1` [Example 11.83, 3-(6-{[(1R)-1-cyclobutylethyl]amino}-7-[(trans-4-methylcyclohexyl)methyl]-8-[(2R)-2-(2-methylpropyl)piperidin-1-yl]-7H-purin-2-yl)-1,2,4-oxadiazol-5(4H)-one], which IC50 is on record?
Answer: 11.5 nM

Question: For `CC(C)C[C@@H]1CCCCN1c1nc2nc(-c3noc(=O)[nH]3)nc(N[C@H](C)C3CCC3)c2n1C[C@H]1CC[C@H](C)CC1` [Example 11.84, 3-(6-{[(1R)-1-cyclobutylethyl]amino}-7-[(trans-4-methylcyclohexyl)methyl]-8-[(2S)-2-(2-methylpropyl)piperidin-1-yl]-7H-purin-2-yl)-1,2,4-oxadiazol-5(4H)-one], which IC50 is on record?
Answer: 3.07 nM

Question: For `CC(Nc1nc2nc(-c3noc(=O)[nH]3)nc(N[C@H](C)C3CCC3)c2n1C[C@H]1CC[C@H](C)CC1)c1cncnc1` (stereo partly drawn) [Example 11.85, 3-(6-{[(1R)-1-cyclobutylethyl]amino}-7-[(trans-4-methylcyclohexyl)methyl]-8-[(1-pyrimidin-5-ylethyl)amino]-7H-purin-2-yl)-1,2,4-oxadiazol-5(2H)-one], which IC50 is on record?
Answer: 4.97 nM
